# Experimental data from publication PMC4564450, “Oral and inhaled p38 MAPK inhibitors: effects on inhaled LPS challenge in healthy subjects” (European Journal of Clinical Pharmacology, 2015).
# Experiments:
# p38 MAPK = conditions: no reference given; read-out: enzyme IC50; cited from earlier work
# [1] = system: IL-6, MCP-1, MIP1β, CC16, fibrinogen and CRP levels in plasma; assay: Inhaled LPS challenge: plasma protein biomarkers; format: in vivo, human; conditions: study 2; for Plasma CC16, mean / Plasma CRP, mean / Plasma Fibrinogen, mean / Plasma IL-6, mean / Plasma MCP-1, mean / Plasma MIP-1β, mean: PH-797804 30 mg oral or PF-03715455 20 mg inhaled, 6 hrs post LPS
# Method: Blood samples were obtained in studies 2 and 3 to obtain plasma measurements of IL-6, MCP-1, MIP1β, CC16, fibrinogen and CRP levels; pre-dose and 6 h post-LPS samples were used for statistical analysis. This coincided with the timings of sputum measurements of inflammation biomarkers.
# Systemic biomarkers were analysed using a similar mixed effects model; these models also adjusted for pre-dose baseline values, which were obtained 24 h prior to LPS challenge in study 2 and 30 min prior to LPS challenge in study 3.
# [2] = system: IL-8 production from epithelial cells; design: method as in Pfizer, data on file; conditions: ref Pfizer, data on file; cited from earlier work
# [3] = Drug concentration in sputum supernatant; format: in vivo, human; conditions: study 2, ten subjects, PF-03715455 inhaled dose, PH-797804 oral dose
# [4] = cited from earlier work
geometric mean sputum concentration [3] [nM],"sputum concentration, range [3] [nM]",SMILES,IC50 (p38 MAPK) [nM],"plasma IL-6, MCP-1, MIP1β and CC16 compared to placebo ([1]; PF-03715455 20 mg inhaled, 6 h post-LPS challenge)","Plasma CC16, mean [1] [ng/mL]","Plasma CRP, mean [1] [ng/mL]","Plasma Fibrinogen, mean [1] [µg/mL]","Plasma IL-6, mean [1] [pg/mL]","Plasma MCP-1, mean [1] [pg/mL]","Plasma MIP-1β, mean [1] [pg/mL]",IL-8 production from epithelial cells [2],improvement of FEV1 ([4]; COPD patients treated for 6 weeks) [mL],pulmonary function ([4]; COPD trial),"tolerability in COPD trials ([4]; oral, up to 24-week duration)","plasma IL-6, MIP1β, MCP-1, CC16 and CRP levels compared to placebo ([1]; PH-797804 30 mg oral, 6 h post-LPS challenge)"
20,4 to 73,CC(C)(C)c1cc(NC(=O)NCc2ccccc2Sc2ccc3nnc(-c4ccccc4SCCO)n3c2)n(-c2ccc(O)c(Cl)c2)n1 [PF-03715455],0.005 to 0.05,statistically significant reductions,10.19,475.90,2340.40,14.43,340.30,71.55,significantly inhibit,,,,
4,2 to 7,CNC(=O)c1ccc(C)c(-n2c(C)cc(OCc3ccc(F)cc3F)c(Br)c2=O)c1 [PH-797804],,,9.34,462.10,2172.70,5.47,261.50,33.82,significantly inhibit,93,clinically significant improvement,well tolerated,statistically significant reductions
